Laboratory results taken from patent publication US20250381210A1, “METHODS OF TREATING VASCULAR DEMENTIA” (The Regents of the University of California, priority 2024, published 2025).

How the values were obtained:
[1] = tested on: VaD mouse model; experiment: Acute piclidenoson, infusion into lateral ventricle 30-min after VaD induction; lesion size and BBB leakage by immunostaining; format: in vivo; conditions: acute administration 30-min post stroke, for 1-2 weeks, direct infusion into lateral ventricle, vs vehicle
Protocol: (§1) VaD in the mouse was modified from white matter stroke model. Briefly, the mice were anesthetized with 2% isoflurane and securely mounted onto a stereotaxic apparatus. Core body temperature of the mice was maintained at 36.5 to 37.5° C. A midline incision was made down the scalp, and a craniotomy was performed with a dental drill. A Nanoliter injector (World Precision Instruments) was used to infuse 27 μg/μL of L-NIO (Sigma-Aldrich, 400-600) in sterile saline (Hospira) with Micro4 Controller injector (World Precision Instruments), at the speed of 100 nL/min. To avoid damage to motor cortex, the glass pipette (Wrld Precision Instruments, 1B100F-4) containing the L-NIO was inserted through the cortex of the frontal lobe into the underlying subcortical WM at an angle of 36°. Three injections (each of 0.3 μL of L-NIO solution) were made in the following coordinates: AP +0.80 mm, ML +2.00 mm, DV −1.56 mm; AP +0.80 mm, ML +2.83 mm, DV −1.60 mm; and AP +0.80 mm, ML +3.66 mm, DV −1.61 mm. Localized vasoconstriction leads to focal ischemia in the subcortical WM. Female mice were excluded because estrogen is potentially preventative against ischemic stroke.
(§2) Immunostaining was performed by brain section blocking in 5% normal donkey serum for 1 hour at room temperature, incubating in primary antibody overnight at 4° C., and in secondary antibody for 1 hour at room temperature. For the performance using CD39 and Pdgfrβ antibodies, antigen retrieval using sodium citrate buffer ([…], pH 6.0), in pressure cooker for 3 min was applied before blocking. All sections were counterstained with 4′,6-diamidino-2-phenylindole (DAPI). The antibodies used in this study are listed below.
High-resolution confocal images in z-stacks were acquired (Nikon C2). Area measurements of the infarct core, WM axonal projections stained with NF160 and MBP were quantified with Imaris (Bitplane, version 10.0.0) using surface function; all the channels were threshold with the same absolute intensity against the background. […]
• 1. Quantification of MBP and NF160 volume for FIGS. 26I, 28M, 28N. […] For each animal, 4 slices, with 300 μm interval across the lesion core along the anterior-posterior axis, were quantified. • 2. Quantification of absolute core sizes (FIG. 16F). […] The size of core area is measured in ImageJ. […] Quantification of relative core sizes (FIG. 28I, 28L). For each animal, 4 slices, with 300 μm interval across the lesion core along the anterior-posterior axis, were quantified using ImageJ. […] Quantification of c-Fos cells (FIG. 16R, 16S, 28Q, 28R). For slices from prefrontal cortex, the number of c-Fos cells were quantified by Imaris using spots function, and normalized with the number of neurons (NeuN+) in the same region of interest (ROI). […]

[2] = tested on: VaD mouse model; experiment: Delayed piclidenoson (5 days after VaD induction); lesion size, axon and myelin volume by immunostaining; format: in vivo; conditions: delayed treatment from 5 days after VaD induction, vs vehicle; for VaD lesion size: examined 3 weeks after treatment
Protocol: as §1, §2
High-resolution confocal images in z-stacks were acquired (Nikon C2). Area measurements of the infarct core, WM axonal projections stained with NF160 and MBP were quantified with Imaris (Bitplane, version 10.0.0) using surface function; all the channels were threshold with the same absolute intensity against the background. The parameters for scanning were kept constant across treatment, and conditions.
(§3) • 1. Quantification of MBP and NF160 volume for FIGS. 26I, 28M, 28N. Imaris (Bitplane, version 10.0.0) using surface function; all the channels were threshold with the same absolute intensity against the background. Because the absolute volume of cerebral white matter varies between coronal slices depending on the coordinate along anterior-posterior axis, it is difficult to directly compare the absolute volume of NF160 or MBP between groups. The volume of ipsilateral white matter is very similar to the contralateral white matter, we first normalized the volume of NF160 or MBP at the ipsilateral side to the contralateral side (no lesion), and then compare the normalized value between groups. This may be a more reasonable way to investigate how the axon reprojection and myelin regrowth is changed by piclidenoson (CF101) treatment. For each animal, 4 slices, with 300 μm interval across the lesion core along the anterior-posterior axis, were quantified. • 2. Quantification of absolute core sizes (FIG. 16F). For each animal, all the slices that cover the lesion core were stained with MBP, NF160, DAPI, and GFAP. The area of core is defined as brain region with NF160/MBP debris, high density of DAPI, and GFAP boundary. The size of core area is measured in ImageJ. The absolute core size is defined by the sum of core area×the slice thickness from all slices. • 3. Quantification of relative core sizes (FIG. 28I, 28L). For each animal, 4 slices, with 300 μm interval across the lesion core along the anterior-posterior axis, were quantified using ImageJ. The relative core sizes were normalized by the average of vehicle treated group. • 4. Quantification of c-Fos cells (FIG. 16R, 16S, 28Q, 28R). For slices from prefrontal cortex, the number of c-Fos cells were quantified by Imaris using spots function, and normalized with the number of neurons (NeuN+) in the same region of interest (ROI). […]

[3] = tested on: VaD mouse model; experiment: Novel Object Recognition (NOR) test after delayed piclidenoson treatment; format: in vivo; conditions: delayed treatment from 5 days after VaD induction, legend: one sample paired t test compared to 50%
[4] = tested on: VaD mouse model; experiment: c-Fos quantification in PFC (AC) and HPC (CA2/3) after delayed piclidenoson treatment; format: in vivo; conditions: VaD animals
Protocol: as §1, §2
as §3, with “(ROI). For slices from hippocampus, the number of c-Fos cells were quantified by Imaris and normalized with the volume of ROI because it is difficult to normalize with the number of neurons due to compact pyramidal cell layer. The same quality threshold was used for all samples. • 5. Quantification of CD39 in human IHC (FIG. 28D, 28E).” for “(ROI).”

[5] = tested on: VaD mouse model; experiment: Grid walking task after delayed piclidenoson treatment; format: in vivo; conditions: three weeks post piclidenoson treatment
Protocol: as §1, with “stroke. Osmotic mini-pumps (1002, 1004) were subcutaneously implanted and connected to right lateral ventricle through brain infusion kit 3 (Alzet). The brain infusion kits were fixed onto the skull with super glue (Loctite, 45198). For 4-week treatment, 1004 mini-pumps were used to delivery 400 µM of piclidenoson (in 1% DMSO in saline) at the speed of 0.11 μL/h; For 2-week treatment, 1002 mini-pumps were used to deliver 200 μM of piclidenoson at the speed of 0.23 μL/h. For Grid walking test, the mice were tested 1-day pre-, 7-day, 30-day, and 60-day post-VaD in progressiveness investigation, and 1-day pre-, 4-day and 21-day post-VaD in piclidenoson treatment study. Behavior tests were scored by observers who were masked to the treatment group of the animals.” for “stroke.”

[6] = tested on: VaD mouse model; experiment: Satb2 and Cux1 immunostaining in cortical Layer VI after delayed piclidenoson treatment; format: in vivo; conditions: motor somatosensory cortex
Protocol: as §1, §2
as §3, with “(ROI). For slices from hippocampus, the number of c-Fos cells were quantified by Imaris and normalized with the volume of ROI because it is difficult to normalize with the number of neurons due to compact pyramidal cell layer. The same quality threshold was used for all samples. • 5. Quantification of CD39 in human IHC (FIG. 28D, 28E).” for “(ROI).”

[7] = tested on: A3AR; conditions: cited from earlier work
[8] = recent phase III clinical trials for psoriasis; cited from earlier work

For `CNC(=O)[C@H]1O[C@@H](n2cnc3c(NCc4cccc(I)c4)ncnc32)[C@H](O)[C@@H]1O` [piclidenoson, 1-deoxy-1-[6-[(iodophenyl)methyl]amino]9H-purine-9-yl]-N-methyl-(-D-ribofuranuronamide], the VaD lesion size [1] was “may reduce lesion size”, the “blood brain barrier (BBB) leakage (immunoreactivity of mouse IgG)” value (“blood brain barrier (BBB) leakage” below) [1] was “significantly reduced blood brain barrier (BBB) leakage” and the “blood brain barrier (BBB) leakage” value ([1]; listed as CF101) was “reduced blood brain barrier (BBB) leakage”. For the same molecule, the “blood brain barrier (BBB) leakage” value ([1]; listed as Pic) was “Veh vs Pic, *p<0.05”, the VaD lesion size [2] was “significant reduction of lesion size” and the VaD lesion size ([2]; listed as CF101) was “significant reduction of lesion size”. The VaD lesion size ([2]; listed as Pic) was “Veh vs Pic, *p<0.05”, the “axon volume / axonal projections (NF160 immunostaining)” value (“axon volume / axonal projections” for short) [2] was “not changed” and the “myelin volume / markers of myelination (MBP immunostaining) in affected WM” value (shortened to “myelin volume / markers of myelination”) [2] was “significantly increased”. For the same molecule, the “axon volume / axonal projections” value ([2]; listed as CF101) was “not changed”, the “myelin volume / markers of myelination” value ([2]; listed as CF101) was “significantly increased” and the “axon volume / axonal projections” value ([2]; listed as Pic) was “Veh vs Pic, n.s.=not significant”. The “myelin volume / markers of myelination” value ([2]; listed as Pic) was “Veh vs Pic, *p<0.05”, the “NOR memory test, memory deficits (novel object preference)” value (“NOR memory test, memory deficits” below) [3] was “significantly reduced memory deficits” and the “NOR memory test, memory deficits” value ([3]; listed as CF101) was “significantly reduced memory deficits”. For the same molecule, the “NOR memory test, memory deficits” value ([3]; listed as Pic) was “Con_Veh, Con_Pic, and VaD_Pic groups, *p<0.05”, the “c-Fos expression in HPC CA2/3, c-Fos+ cell numbers per mm^3” value (“c-Fos expression … per mm^3” below) [4] was “restored c-Fos expression” and the “c-Fos expression in PFC anterior cingulate (AC), c-Fos/NeuN (%)” value (shortened to “c-Fos expression … c-Fos/NeuN (%)”) [4] was “restored c-Fos expression”. The “c-Fos expression … per mm^3” value ([4]; listed as CF101) was “restored c-Fos expression”, the “c-Fos expression … c-Fos/NeuN (%)” value ([4]; listed as CF101) was “restored c-Fos expression” and the “c-Fos expression … per mm^3” value ([4]; listed as Pic) was “Con_Veh vs VaD_Pic, n.s.=not significant”. For the same molecule, the “c-Fos expression … c-Fos/NeuN (%)” value ([4]; listed as Pic) was “Con_Veh vs VaD_Pic, n.s.=not significant”, the “grid walking task, motor deficit” value [5] was “successfully rescued the motor deficit” and the “grid walking task, motor deficit” value ([5]; listed as CF101) was “successfully rescued the motor deficit”. The “grid walking task, motor deficit” value ([5]; listed as Pic) was “VaD_Veh vs VaD_Pic, ##p<0.01”, the “Cux1 expression, Cux1+/NeuN (%) in Layer VI above infarct lesion” value (shortened to “Cux1 expression, Cux1+/NeuN (%)”) [6] was “significantly ameliorated” and the “Satb2 expression, Satb2+/NeuN (%) in Layer VI near infarct lesion” value (shortened to “Satb2 expression, Satb2+/NeuN (%)”) [6] was “significantly ameliorated”. For the same molecule, the “Satb2 expression, Satb2+/NeuN (%)” value ([6]; listed as CD101) was “VaD_Veh vs VaD_CD101, *p<0.05”, the “Cux1 expression, Cux1+/NeuN (%)” value ([6]; listed as CF101) was “significantly ameliorated” and the “Satb2 expression, Satb2+/NeuN (%)” value ([6]; listed as CF101) was “significantly ameliorated”. The “Cux1 expression, Cux1+/NeuN (%)” value ([6]; listed as Pic) was “Con_Veh vs VaD_Pic, n.s.=not significant”, the “Satb2 expression, Satb2+/NeuN (%)” value ([6]; listed as Pic) was “Con_Veh vs VaD_Pic, n.s.=not significant” and the “potency in A3AR action relative to A1AR and A2bAR” value ([7]; A3AR vs A1AR and A2bAR) was 50 fold. For the same molecule, the “non-specific effects on other adenosine receptors” value [7] was “minimal non-specific effects on other adenosine receptors” and the safety in humans [8] was “safely used in humans”.
